The source of these data is patent publication US5284947A, “Multiple drug resistance-attenuating compounds” (Abbott Laboratories, priority 1992, dated 1994).

The test system of assay [1] is KB V1 cells (multiple drug resistant). The experiment in a line: Chemosensitization (cytotoxicity) assay of multiple drug resistant cells, MTT. The conditions noted are these: Homo sapiens, KB-V1, 72 h. The assay is classed as cell-based. As to the method: (§1) Cytotoxicity assays to determine 50% inhibition of growth (IC50) were done in 96-well tissue culture microtiter trays (Costar, Cambridge, Mass.). Cell growth was determined as follows: KB 3-1 (sensitive) and KB V1 (multiple drug resistant) cells grown in Dulbecco's modified Eagle medium (Gibco BRL, Division of Life Technologies, Inc., Grand Island, N.Y.) were added to each microtiter well at 1×10^4 cells in 200 μL of growth medium in the presence and absence of verapamil, 5-acetylardeemin and 5-acetyl-15b-β-hydroxyardeemin at […]. Anticancer cytotoxic agents adriamycin (ADR), vinblastine (VBL) and vincristine (VCR) (Sigma, St. Louis, Mo.) were added in final concentrations ranging from 0.0001 to 10 μg/mL. Cells were incubated at 37° C. in a humidified atmosphere of 4% CO2 for 72 hours. Cell growth was measured by the reduction of 3-(4,5-dimethyl-thiazol-2-yl)-2,5-diphenyltetrazolium bromide (MTT), added to each well at 0.1 mg/mL. The plates were incubated at 37° C. in humidified 4% CO2 for 3 hours. The trays were spun at 1000×g for 10 minutes, the supernatant removed by aspiration and the residual formazan reduction product dissolved in 100 μL of DMSO. Growth was quantitated by measuring the optical absorbance in each well at 570 nm in a microtiter plate reader.

A further assay concerns KB 3-1 cells (sensitive). The experiment in a line: Cytotoxicity assay in drug-sensitive cells, MTT. Conditions: Homo sapiens, modulator: none, 72 hours. The assay is classed as cell-based. Here is the method: as §1
The test system of assay [2] is certain mammalian target cells. The conditions noted are these: known compounds; cited from earlier work.

≈ marks a conversion by molar mass, not a printed value. Read-outs that look alike come from different tables or passages of the source.

For the compound `CC[C@]1(O)C[C@H]2CN(CCc3c([nH]c4ccccc34)[C@@](C(=O)OC)(c3cc4c(cc3OC)N(C=O)[C@H]3[C@@](O)(C(=O)OC)[C@H](OC(C)=O)[C@]5(CC)C=CCN6CC[C@]43[C@@H]65)C2)C1` [VCR, vincristine], the IC50 in assay [1] (read-out: VCR-IC50) turned out to be 7 µg/mL; with KB 3-1 cells (sensitive) (read-out: VCR-IC50), 0.001 µg/mL (≈ 1.21 nM). Take `CC[C@]1(O)C[C@@H]2CN(CCc3c([nH]c4ccccc34)[C@@](C(=O)OC)(c3cc4c(cc3OC)N(C)[C@H]3[C@@](O)(C(=O)OC)[C@H](OC(C)=O)[C@]5(CC)C=CCN6CC[C@]43[C@@H]65)C2)C1` [VBL, vinblastine]: the IC50 is 1.2 µg/mL in assay [1] (read-out: VBL-IC50) and 0.001 µg/mL (≈ 1.23 nM) with KB 3-1 cells (sensitive) (read-out: VBL-IC50). As for `CCC1=C[C@@H]2CN3CCc4c([nH]c5ccccc45)[C@@](C(=O)OC)(C2)[C@@H]13` [catharanthine], the “attenuation of drug resistance” value in assay [2] was “attenuate, if not reverse, drug resistance in certain mammalian target cells”.

For the compound `COc1cccc2c1C(=O)c1c(O)c3c(c(O)c1C2=O)C[C@@](O)(C(=O)CO)C[C@@H]3O[C@H]1C[C@H](N)[C@H](O)[C@H](C)O1` [ADR, adriamycin], the values for the IC50 (in assay [1] (read-out: ADR-IC50); with KB 3-1 cells (sensitive) (read-out: ADR-IC50)) were 3 µg/mL and 0.012 µg/mL (≈ 22.1 nM), respectively. `COc1ccc(CCN(C)CCCC(C#N)(c2ccc(OC)c(OC)c2)C(C)C)cc1OC` (stereo not drawn) [Verapamil, verapamil]: the “attenuation of drug resistance” value in assay [2] was “attenuate, if not reverse, drug resistance in certain mammalian target cells”. Turning to `COc1ccc([C@@H]2Sc3ccccc3N(CCN(C)C)C(=O)[C@@H]2OC(C)=O)cc1` [diltiazem], in assay [2], the “attenuation of drug resistance” value was “attenuate, if not reverse, drug resistance in certain mammalian target cells”.
